Data reported in US12018021B2 (UCB Biopharma SRL, priority 2018, dated 2024).

target: IgE-Tb / sFcεRIα-Y131A-AF488 (Homo sapiens, UniProt P01854, N146Q/N252Q); experiment: IgE-Tb / sFcεRIα-Y131A-AF488 FRET assay (protocol for examples 234 to 501); type: binding; conditions: examples 234 to 501: compound with IgE-Tb 30 minutes before sFcεRIα-Y131A-AF488, incubated 18 hours at room temperature; read-out: Y131A FRET IC50 range
Procedure, shortened: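 Compounds (10-point 3-fold series, top usually 10 μM, 2% DMSO) preincubated 30 min with 5 nM IgE-Tb, then 25 nM sFcεRIα-Y131A-AF488 added; 18 h at room temperature in the dark. TR-FRET ratio 520/490 nm after 337 nm excitation, background-subtracted; IC50 by four-parameter logistic fit.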

Sequence of IgE-Tb / sFcεRIα-Y131A-AF488 (P01854 whole entry N146Q/N252Q): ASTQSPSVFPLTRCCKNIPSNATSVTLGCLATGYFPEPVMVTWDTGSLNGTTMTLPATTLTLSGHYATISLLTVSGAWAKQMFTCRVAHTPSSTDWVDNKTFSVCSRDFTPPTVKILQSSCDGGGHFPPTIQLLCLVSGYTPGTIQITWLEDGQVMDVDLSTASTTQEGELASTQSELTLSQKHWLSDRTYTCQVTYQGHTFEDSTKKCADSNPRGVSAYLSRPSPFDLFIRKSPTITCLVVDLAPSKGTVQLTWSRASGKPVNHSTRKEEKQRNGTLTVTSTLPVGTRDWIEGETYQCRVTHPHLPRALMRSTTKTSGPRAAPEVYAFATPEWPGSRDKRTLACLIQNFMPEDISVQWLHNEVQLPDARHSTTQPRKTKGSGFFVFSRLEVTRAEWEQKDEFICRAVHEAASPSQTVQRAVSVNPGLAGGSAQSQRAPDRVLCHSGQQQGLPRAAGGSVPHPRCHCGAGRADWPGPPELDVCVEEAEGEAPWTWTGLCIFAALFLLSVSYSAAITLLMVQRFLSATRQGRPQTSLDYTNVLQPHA

SMILES	IC50 [nM]
CSc1cccc(Nc2nncn2[C@H]2CCc3sc(NC(=O)C4CC4)c(C(=O)NCC4CC4)c3C2)c1 [Example 249, (5S)-2-(cyclopropanecarbonylamino)-N-(cyclopropylmethyl)-5-[3-(3-methylsulfanylanilino)-1,2,4-triazol-4-yl]-4,5,6,7-tetrahydrobenzothiophene-3-carboxamide]	< 1000
CS(=O)(=O)c1cccc(Nc2nncn2[C@H]2CCc3sc(NC(=O)C4CC4)c(C(=O)NCC4CC4)c3C2)c1 [Example 250, (5S)-2-(cyclopropanecarbonylamino)-N-(cyclopropylmethyl)-5-[3-(3-methylsulfonylanilino)-1,2,4-triazol-4-yl]-4,5,6,7-tetrahydrobenzothiophene-3-carboxamide]	< 1000
C[S+]([O-])c1cccc(Nc2nncn2[C@H]2CCc3sc(NC(=O)C4CC4)c(C(=O)NCC4CC4)c3C2)c1 (stereo partly drawn) [Example 251, (5S)-2-(cyclopropanecarbonylamino)-N-(cyclopropylmethyl)-5-[3-(3-methylsulfinylanilino)-1,2,4-triazol-4-yl]-4,5,6,7-tetrahydrobenzothiophene-3-carboxamide]	< 1000
C[S+]([O-])c1cccc(Nc2nncn2[C@H]2CCc3sc(NC(=O)C4CC45CC5)c(C(=O)NCC4CC4)c3C2)n1 (stereo partly drawn) [Example 255, (5S)—N-(cyclopropylmethyl)-5-[3-[(6-methylsulfinyl-2-pyridyl)amino]-1,2,4-triazo-4-yl]-2-(spiro[2.2]pentane-2-carbonylamino)-4,5,6,7-tetrahydrobenzothiophene-3-carboxamide]	< 1000
COc1ccc2c(c1)Nc1c(ncn1[C@H]1CCc3sc(NC(=O)C4CC4)c(C(=O)NCC4CC4)c3C1)C(=O)N2 [Example 257, (5S)-2-(cyclopropanecarbonylamino)-N-(cyclopropylmethyl)-5-(8-methoxy-4-oxo-5,10-dihydroimidazo[4,5-c][1,5]benzodiazepin-1-yl)-4,5,6,7-tetrahydrobenzothiophene-3-carboxamide]	< 1000
COc1ccc2c(c1)Nc1c(ncn1[C@H]1CCc3sc(NC(=O)C4CC4)c(C(=O)NCC4CC4)c3C1)C(=O)N2C [Example 258, (5S)-2-(cyclopropanecarbonylamino)-N-(cyclopropylmethyl)-5-(8-methoxy-5-methyl-4-oxo-10H-imidazo[4,5-c][1,5]benzodiazepin-1-yl)-4,5,6,7-tetrahydrobenzothiophene-3-carboxamide]	< 1000
Nc1c(C(=O)N2CC[C@@H](O)C2)ncn1[C@H]1CCc2sc(NC(=O)C3CC3)c(C(=O)NCC3CC3)c2C1 [Example 260, (5S)-5-[5-amino-4-[(3R)-3-hydroxypyrrolidine-1-carbonyl]imidazol-1-yl]-2-(cyclopropanecarbonylamino)-N-(cyclopropylmethyl)-4,5,6,7-tetrahydrobenzothiophene-3-carboxamide]	< 1000
C[C@H]1CCCN1C(=O)c1ncn([C@H]2CCc3sc(NC(=O)C4CC4)c(C(=O)NCC4CC4)c3C2)c1N [Example 261, (5S)-5-[5-amino-4-[(2S)-2-methylpyrrolidine-1-carbonyl]imidazol-1-yl]-2-(cyclopropanecarbonylamino)-N-(cyclopropylmethyl)-4,5,6,7-tetrahydrobenzothiophene-3-carboxamide]	< 1000
CCOC(=O)c1ncn([C@H]2CCc3sc(NC(=O)C4CC4)c(C(=O)NCC4CC4)c3C2)c1Nc1c([N+](=O)[O-])c(C)nn1C [Example 262, Ethyl 1-[(5S)-2-(cyclopropanecarbonylamino)-3-(cyclopropylmethylcarbamoyl)-4,5,6,7-tetrahydrobenzothiophen-5-yl]-5-[(2,5-dimethyl-4-nitro-pyrazol-3-yl)amino]imidazole-4-carboxylate]	< 1000
Cc1c(Nc2nncn2[C@H]2CCc3sc(NC(=O)C4CC4)c(C(=O)NCC4CC4)c3C2)cccc1[S+](C)[O-] (stereo partly drawn) [Example 263, (5S)-2-(cyclopropanecarbonylamino)-N-(cyclopropylmethyl)-5-[3-(2-methyl-3-methylsulfinyl-anilino)-1,2,4-triazol-4-yl]-4,5,6,7-tetrahydrobenzothiophene-3-carboxamide]	< 1000
Cc1c(Nc2nncn2[C@H]2CCc3sc(NC(=O)C4CC4)c(C(=O)NCC4CC4)c3C2)cccc1S(C)(=O)=O [Example 264, (5S)-2-(cyclopropanecarbonylamino)-N-(cyclopropylmethyl)-5-[3-(2-methyl-3-methylsulfonyl-anilino)-1,2,4-triazol-4-yl]-4,5,6,7-tetrahydrobenzothiophene-3-carboxamide]	< 1000
Cn1nc(-c2ncco2)cc1Nc1nncn1[C@H]1CCc2sc(NC(=O)C3CC3)c(C(=O)NCC3CC3)c2C1 [Example 265, (5S)-2-(cyclopropanecarbonylamino)-N-(cyclopropylmethyl)-5-[3-[(2-methyl-5-oxazol-2-yl-pyrazol-3-yl)amino]-1,2,4-triazol-4-yl]-4,5,6,7-tetrahydrobenzothiophene-3-carboxamide]	< 1000
CC(=O)N1CC[C@H](Nc2nncn2[C@H]2CCc3sc(NC(=O)C4CC4)c(C(=O)NCC4CC4)c3C2)C1 [Example 266, (5S)-5-[3-[[(3S)-1-acetylpyrrolidin-3-yl]amino]-1,2,4-triazol-4-yl]-2-(cyclopropanecarbonylamino)-N-(cyclopropylmethyl)-4,5,6,7-tetrahydrobenzothiophene-3-carboxamide]	< 1000
CS(=O)(=O)N1CC[C@H](Nc2nncn2[C@H]2CCc3sc(NC(=O)C4CC4)c(C(=O)NCC4CC4)c3C2)C1 [Example 267, (5S)-2-(cyclopropanecarbonylamino)-N-(cyclopropylmethyl)-5-[3-[[(3S)-1-methylsulfonylpyrrolidin-3-yl]amino]-1,2,4-triazol-4-yl]-4,5,6,7-tetrahydrobenzothiophene-3-carboxamide]	< 1000
CS(=O)(=O)N1CC[C@@H](Nc2nncn2[C@H]2CCc3sc(NC(=O)C4CC4)c(C(=O)NCC4CC4)c3C2)C1 [Example 268, (5S)-2-(cyclopropanecarbonylamino)-N-(cyclopropylmethyl)-5-[3-[[(3R)-1-methylsulfonylpyrrolidin-3-yl]amino]-1,2,4-triazol-4-yl]-4,5,6,7-tetrahydrobenzothiophene-3-carboxamide]	< 1000
O=C1CC(Nc2nncn2[C@H]2CCc3sc(NC(=O)C4CC4)c(C(=O)NCC4CC4)c3C2)CN1 (stereo partly drawn) [Example 270, (5S)-2-(cyclopropanecarbonylamino)-N-(cyclopropylmethyl)-5-[3-[(5-oxopyrrolidin-3-yl)amino]-1,2,4-triazol-4-yl]-4,5,6,7-tetrahydrobenzothiophene-3-carboxamide]	< 1000
O=C1CC(Nc2nncn2[C@H]2CCc3sc(NC(=O)C4CC4)c(C(=O)NCC4CC4)c3C2)CCN1 (stereo partly drawn) [Example 272, (5S)-2-(cyclopropanecarbonylamino)-N-(cyclopropylmethyl)-5-[3-[(2-oxo-4-piperidyl)amino]-1,2,4-triazol-4-yl]-4,5,6,7-tetrahydrobenzothiophene-3-carboxamide]	< 1000
CC(=O)N1CCC(Nc2nncn2[C@H]2CCc3sc(NC(=O)C4CC4)c(C(=O)NCC4CC4)c3C2)C1C (stereo partly drawn) [Example 273, (5S)-5-[3-[(1-acetyl-2-methyl-pyrrolidin-3-yl)amino]-1,2,4-triazol-4-yl]-2-(cyclopropanecarbonylamino)-N-(cyclopropylmethyl)-4,5,6,7-tetrahydrobenzothiophene-3-carboxamide]	< 1000
CC(=O)N1CCC(Nc2nncn2[C@H]2CCc3sc(NC(=O)C4CC4)c(C(=O)NCC4CC4)c3C2)CC1 [Example 286, (5S)-5-[3-[(1-acetyl-4-piperidyl)amino]-1,2,4-triazol-4-yl]-2-(cyclopropanecarbonylamino)-N-(cyclopropylmethyl)-4,5,6,7-tetrahydrobenzothiophene-3-carboxamide]	< 1000
COC(=O)N1CC[C@H](Nc2nncn2[C@H]2CCc3sc(NC(=O)C4CC4)c(C(=O)NCC4CC4)c3C2)C1 [Example 287, Methyl (3S)-3-[[4-[(5S)-2-(cyclopropanecarbonylamino)-3-(cyclopropylmethylcarbamoyl)-4,5,6,7-tetrahydrobenzothiophen-5-yl]-1,2,4-triazol-3-yl]amino]pyrrolidine-1-carboxylate]	< 1000
CCNC(=O)N1CC[C@H](Nc2nncn2[C@H]2CCc3sc(NC(=O)C4CC4)c(C(=O)NCC4CC4)c3C2)C1 [Example 288, (3S)-3-[[4-[(5S)-2-(cyclopropanecarbonylamino)-3-(cyclopropylmethylcarbamoyl)-4,5,6,7-tetrahydrobenzothiophen-5-yl]-1,2,4-triazol-3-yl]amino]-N-ethyl-pyrrolidine-1-carboxamide]	< 1000
Cn1nc(OC(F)(F)F)cc1Nc1nncn1[C@H]1CCc2sc(NC(=O)[C@H]3C[C@H]3F)c(C(=O)NCC3CC3)c2C1 [Example 292, (5S)—N-(cyclopropylmethyl)-2-[[(1R,2R)-2-fluorocyclopropanecarbonyl]amino]-5-[3-[[2-methyl-5-(trifluoromethoxy)pyrazol-3-yl]amino]-1,2,4-triazol-4-yl]-4,5,6,7-tetrahydrobenzothiophene-3-carboxamide]	< 1000
Cn1nc(OC(F)(F)Cl)cc1Nc1nncn1[C@H]1CCc2sc(NC(=O)[C@H]3C[C@H]3F)c(C(=O)NCC3CC3)c2C1 [Example 293, (5S)-5-[3-[[5-[chloro(difluoro)methoxy]-2-methyl-pyrazol-3-yl]amino]-1,2,4-triazol-4-yl]-N-(cyclopropylmethyl)-2-[[(1R,2R)-2-fluorocyclopropanecarbonyl]amino]-4,5,6,7-tetrahydrobenzothiophene-3-carboxamide]	< 1000
